Usually IC50 stands for the concentration needed to halve the response being measured. A word on the melting point: it is the temperature of the solid-liquid transition.

Data set [1] can be described thus: In vitro cytotoxicity, fluorescent Resazurin assay, HL60. The settings on record: human, HL60 (HL-60) promyelocytic leukemia cells, In vitro cytotoxicity [IC50, μM] HL60, HL60 cells, 72 h incubation, 1–30 μM, mean ± standard deviation. For orientation: Alamar Blue is a resazurin reagent that responds to reducing activity.
Source text: (§1) The in vitro cytotoxicity of the several synthesized compounds was also investigated. […] During the measurements, the fluorescent Resazurin assay as described previously was applied.[19]
(§2) Cells were purchased from the American Type Culture Collection (ATCC, Manassas, Virginia, USA). Human lung adenocarcinoma A549 cells were maintained in Dulbecco’s modified Eagle’s medium (DMEM), while mouse fibroblast NIH/3T3 and human promyelocytic leukemia HL-60 cells were maintained in Roswell Park Memorial Institute 1640 medium (RPMI-1640) containing 10% FCS. Media were supplemented with 2 mM GlutaMAX, 100 U/mL penicillin, and 100 μg/mL streptomycin (Life Technologies, Carlsbad, California, USA). Cell cultures were maintained at 37 °C in a humidified incubator in an atmosphere of 5% CO2 (Sanyo, Japan).
(§3) Cytotoxicity of the synthesized molecules was determined on A549, NIH/3T3, and HL-60 cells using the fluorescent Resazurin assay as described previously.[19]
(§4) Briefly, cells (A549 and NIH/3T3: 6000, HL-60: 120.000 cells/well) were seeded into 96-well plates (Corning Life Sciences) in media and incubated overnight. Test compounds were dissolved in 3-fold amounts of dimethyl sulfoxide (DMSO). Cells were treated with an increasing concentration of test compounds (1–30 μM). […] Cell viability was determined after 72 h incubation. Resazurin reagent (Sigma-Aldrich) was added at a final concentration of 25 μg/mL. After a 2 h incubation for at 37 °C, 5% CO2, fluorescence (530 nm excitation/580 nm emission) was recorded on a multimode microplate reader (Cytofluor4000, PerSeptive Biosytems). Viability was calculated with relation to untreated control cells and blank wells containing media without cells.
Data set [2] can be described thus: In vitro cytotoxicity, fluorescent Resazurin assay, A549. It is filed as cell-based. The conditions noted are these: human, A549 lung adenocarcinoma cells, 72 h incubation, 1–30 μM, mean ± standard deviation.
A short description of data set [3]: In vitro cytotoxicity, fluorescent Resazurin assay, NIH/3T3. The conditions noted are these: mouse, NIH/3T3 fibroblast cells.
Source text: as §1, §2, §3, §4
For data set [4], the system named is human promyelocytic leukemia (HL60) cell line. In words: In vitro cytotoxicity, fluorescent Resazurin assay, HL60. The settings on record: read-out: In vitro cytotoxicity [IC50, μM] HL60, HL60 cells, 72 h incubation, 1–30 μM, mean ± standard deviation.
Source text: as §1, §2, §3, §4

The molecule `CC(C)C[C@H](NC(=O)[C@H](Cc1ccccc1)NC(=O)c1cnccn1)B(O)O` [bortezomib, reference compound] registered an IC50 at 72 h in data set [1] of 0.00742 µM.
`Cc1ccc2c(c1)C(=O)/C(=C/NC1CCCCC1)C(P(=O)(c1ccc3ccccc3c1)c1ccc3ccccc3c1)O2` (stereo not shown) [9b, (Z)-3-[(Cyclohexylamino)methylene]-2-[di(naphthalen-2-yl)phosphoryl]-6-methylchroman-4-one] had a melting point of 171 to 172 °C.
The same measure, in the same setting: to `Cc1cc(C)cc(P(=O)(c2cc(C)cc(C)c2)C(Nc2ccccc2)c2coc3ccc(C)cc3c2=O)c1` (stereo not shown) [compound 5, 3-{(Phenylamino)[bis(3,5-dimethylphenyl)phosphoryl]methyl}-6-methyl-4H-chromen-4-one] belongs 229 to 230 °C.
On to `Cc1cc(C)cc(P(=O)(c2cc(C)cc(C)c2)C2Oc3ccc(C)cc3C(=O)/C2=C/NC2CCCCC2)c1` (stereo not shown) [8c, (Z)-2-[Bis(3,5-dimethylphenyl)phosphoryl]-3-[(cyclohexylamino)methylene]-6-methylchroman-4-one], for which the melting point lay within 155 to 156 °C. Moreover, the IC50 at 72 h in data set [2] is above 30 µM. Further, the IC50 at 72 h in data set [1] is around 15 µM. In data set [3], the IC50 at 72 h is above 30 µM.
For the molecule `CCCCN/C=C1/C(=O)c2cc(C)ccc2OC1P(=O)(c1ccccc1)c1ccccc1` (stereo not shown) [2a, (Z)-3-[(Butylamino)methylene]-2-(diphenylphosphoryl)-6-methylchroman-4-one], the melting point is 192 to 193 °C.
The molecule `Cc1ccc2c(c1)C(=O)/C(=C/NCCO)C(P(=O)(c1ccccc1)c1ccccc1)O2` (stereo not shown) [2g, (Z)-3-[(Ethanolamino)methylene]-2-(diphenylphosphoryl)-6-methylchroman-4-one] returned a melting point of 181 to 182 °C. In data set [2], this molecule showed an IC50 at 72 h above 30 µM. The same molecule gave a half-inhibitory concentration (IC50) at 72 h in data set [1] above 30 µM. For the same molecule, the IC50 at 72 h in data set [3] turned out to be 20.7 ± 1.02 µM.
`CCCCN/C=C1/C(=O)c2cc(C)ccc2OC1P(=O)(c1cc(C)cc(C)c1)c1cc(C)cc(C)c1` (stereo not shown) [8a, (Z)-2-[Bis(3,5-dimethylphenyl)phosphoryl]-3-[(butylamino)methylene]-6-methyl-chroman-4-one] showed a melting point of 145 to 146 °C. In data set [2], this molecule came in with an IC50 at 72 h above 30 µM. The 50% inhibitory concentration (IC50) at 72 h in data set [1] is around 15 µM. Moreover, in data set [4], the concentration for half-maximal inhibition (IC50) was found to be 14.8 ± 1.13 µM. The IC50 at 72 h in data set [3] is above 30 µM.
With `CCCCN/C=C1/C(=O)c2cc(C)ccc2OC1P(=O)(c1ccc2ccccc2c1)c1ccc2ccccc2c1` (stereo not shown) [9a, (Z)-3-[(Butylamino)methylene]-2-[di(naphthalen-2-yl)phosphoryl]-6-methylchroman-4-one], the melting point was 192 to 193 °C.
The same measure, in the same setting: next, `Cc1ccc(P(=O)(c2ccc(C)cc2)C(Nc2ccccc2)c2coc3ccc(C)cc3c2=O)cc1` (stereo not shown) [compound 4, 3-[(Phenylamino)(di-p-tolylphosphoryl)methyl]-6-methyl-4H-chromen-4-one]: 245 to 246 °C; `COc1ccc(NC(c2coc3ccc(C)cc3c2=O)P(=O)(c2ccccc2)c2ccccc2)cc1` (stereo not shown) [1c, 3-[(4-Methoxyphenylamino)(diphenylphosphoryl)methyl]-6-methyl-4H-chromen-4-one]: 224 to 225 °C.
For `Cc1ccc2c(c1)C(=O)/C(=C/NC(c1ccccc1)c1ccccc1)C(P(=O)(c1ccccc1)c1ccccc1)O2` (stereo not shown) [2e, (Z)-3-[(Benzhydrylamino)methylene]-2-(diphenylphosphoryl)-6-methylchroman-4-one], the melting point was in the range of 182 to 183 °C. Moreover, in data set [2], the IC50 at 72 h is above 30 µM. Moreover, the IC50 at 72 h in data set [1] was 9.91 ± 1.28 µM. Also, the IC50 at 72 h in data set [3] was above 30 µM.
With `Cc1ccc(P(=O)(c2ccc(C)cc2)C2Oc3ccc(C)cc3C(=O)/C2=C/NCc2ccccc2)cc1` (stereo not shown) [7c, (Z)-3-[(Benzylamino)methylene]-2-(di-p-tolylphosphoryl)-6-methylchroman-4-one], the melting point was in the range of 198 to 199 °C.
Same read-out and setting: next, `Cc1ccc2c(c1)C(=O)/C(=C/Nc1ccccc1)C(P(=O)(c1ccccc1)c1ccccc1)O2` (stereo not shown) [2b, (Z)-3-[(Phenylamino)methylene]-2-(diphenylphosphoryl)-6-methylchroman-4-one]: 243 to 244 °C.
Same read-out and setting: to `Cc1ccc2occ(C(Nc3ccccc3)P(=O)(c3ccc4ccccc4c3)c3ccc4ccccc4c3)c(=O)c2c1` (stereo not shown) [compound 6, 3-{(Phenylamino)[di(naphthalen-2-yl)phosphoryl]methyl}-6-methyl-4H-chromen-4-one] belongs 223 to 224 °C; to `Cc1ccc2c(c1)C(=O)/C(=C/NCc1ccccc1)C(P(=O)(c1ccccc1)c1ccccc1)O2` (stereo not shown) [2d, (Z)-3-[(Benzylamino)methylene]-2-(diphenylphosphoryl)-6-methylchroman-4-one], 196 to 197 °C; to `CCCCNC(c1coc2ccc(C)cc2c1=O)P(=O)(c1ccccc1)c1ccccc1` (stereo not shown) [1a, 3-[(Butylamino)(diphenylphosphoryl)methyl]-6-methyl-4H-chromen-4-one], 187 to 188 °C.
On the same count and under the same terms, next, `Cc1ccc2occ(C(O)P(=O)(c3ccccc3)c3ccccc3)c(=O)c2c1` (stereo not shown) [compound 3, 3-[(Diphenylphosphoryl)(hydroxy)methyl]-6-methyl-4H-chromen-4-one]: 190 to 192 °C.
For the molecule `Cc1cc(C)cc(P(=O)(c2cc(C)cc(C)c2)C2Oc3ccc(C)cc3C(=O)/C2=C/NCc2ccccc2)c1` (stereo not shown) [8d, (Z)-3-[(benzylamino)methylene]-2-[bis(3,5-dimethylphenyl)phosphoryl]-6-methylchroman-4-one], the IC50 at 72 h in data set [2] was 18.5 ± 1.08 µM; in data set [1], around 15 µM; in data set [3], 14.2 ± 1.12 µM. In addition, the IC50 in data set [4] was determined as 13.2 ± 1.32 µM.
The molecule `CCCCN/C=C1/C(=O)c2cc(C)ccc2OC1P(=O)(c1ccc(C)cc1)c1ccc(C)cc1` (stereo not shown) [7a, (Z)-3-[(Butylamino)methylene]-2-(di-p-tolylphosphoryl)-6-methylchroman-4-one] registered a melting point of 186 to 187 °C.
On to `Cc1ccc2occ(C(Nc3ccccc3)P(=O)(c3ccccc3)c3ccccc3)c(=O)c2c1` (stereo not shown) [1b, 3-[(Phenylamino)(diphenylphosphoryl)methyl]-6-methyl-4H-chromen-4-one], for which the melting point was 239 to 240 °C.
On to `Cc1ccc2c(c1)C(=O)/C(=C/NCCCO)C(P(=O)(c1ccccc1)c1ccccc1)O2` (stereo not shown) [2f, (Z)-3-[(Propanolamino)methylene]-2-(diphenylphosphoryl)-6-methylchroman-4-one], for which the melting point fell in the range of 176 to 177 °C. In addition, in data set [2], the half-inhibitory concentration (IC50) at 72 h is above 30 µM. This molecule also gave an IC50 at 72 h in data set [1] of 27.4 ± 1.13 µM. This molecule had an IC50 at 72 h in data set [3] above 30 µM.
Molecule `Cc1ccc(P(=O)(c2ccc(C)cc2)C2Oc3ccc(C)cc3C(=O)/C2=C/NC2CCCCC2)cc1` (stereo not shown) [7b, (Z)-3-[(Cyclohexylamino)methylene]-2-(di-p-tolylphosphoryl)-6-methylchroman-4-one] displayed a melting point of 205 to 206 °C.
Still for that read-out and setting: next, `Cc1ccc2occ(C(Nc3ccc(Cl)cc3)P(=O)(c3ccccc3)c3ccccc3)c(=O)c2c1` (stereo not shown) [1d, 3-[(4-Chlorophenylamino)(diphenylphosphoryl)methyl]-6-methyl-4H-chromen-4-one]: 235 to 236 °C.
On to `Cc1ccc2c(c1)C(=O)/C(=C/NC1CCCCC1)C(P(=O)(c1ccccc1)c1ccccc1)O2` (stereo not shown) [2c, (Z)-3-[(Cyclohexylamino)methylene]-2-(diphenylphosphoryl)-6-methylchroman-4-one], for which the melting point is 198 to 199 °C.

The record behind these values is paper PMC9850473, “Three-Component Reaction of 3-Formyl-6-Methylchromone, Primary Amines, and Secondary Phosphine Oxides: A Synthetic and Mechanistic Study” (ACS Omega, 2022).
